{"source": "patent US20040005623A1", "about": "“Method of determining tumor sensitivities to therapeutic drugs” (priority 2002, published 2004)", "key": {"[1]": {"target": "T1, KIT Val560Gly juxtamembrane regulatory type mutant (Homo sapiens, UniProt P10721, V560G)", "T1 construct": "expressed in transfected cells; host or cells: COS cells", "T1 sequence (P10721 26-976 V560G)": "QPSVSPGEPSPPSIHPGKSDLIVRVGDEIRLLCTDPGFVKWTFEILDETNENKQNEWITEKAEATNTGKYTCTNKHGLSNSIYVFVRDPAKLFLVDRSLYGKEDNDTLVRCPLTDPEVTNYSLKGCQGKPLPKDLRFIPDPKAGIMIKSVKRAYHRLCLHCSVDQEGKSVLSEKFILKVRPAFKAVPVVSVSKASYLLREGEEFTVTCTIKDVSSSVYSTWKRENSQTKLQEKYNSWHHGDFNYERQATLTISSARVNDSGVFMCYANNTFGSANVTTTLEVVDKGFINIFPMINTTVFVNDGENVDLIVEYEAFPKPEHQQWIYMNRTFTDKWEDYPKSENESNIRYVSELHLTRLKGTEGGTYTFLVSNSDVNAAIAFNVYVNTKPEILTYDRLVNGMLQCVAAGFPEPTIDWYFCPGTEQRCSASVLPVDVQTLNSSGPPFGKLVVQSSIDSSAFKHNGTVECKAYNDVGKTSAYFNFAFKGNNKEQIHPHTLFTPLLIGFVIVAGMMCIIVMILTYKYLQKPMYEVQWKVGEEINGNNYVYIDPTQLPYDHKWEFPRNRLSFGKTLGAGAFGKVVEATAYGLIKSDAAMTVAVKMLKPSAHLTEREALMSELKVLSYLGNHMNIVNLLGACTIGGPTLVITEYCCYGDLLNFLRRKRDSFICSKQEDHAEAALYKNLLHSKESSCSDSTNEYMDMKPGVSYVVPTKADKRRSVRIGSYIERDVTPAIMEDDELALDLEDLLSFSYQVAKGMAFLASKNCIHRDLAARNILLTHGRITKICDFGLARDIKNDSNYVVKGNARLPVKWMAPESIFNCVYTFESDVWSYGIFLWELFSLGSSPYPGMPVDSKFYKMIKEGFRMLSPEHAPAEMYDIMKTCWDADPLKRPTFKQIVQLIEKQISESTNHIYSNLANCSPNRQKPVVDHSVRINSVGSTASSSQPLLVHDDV", "experiment": "SCF-independent constitutive phosphorylation of Val560Gly mutant KIT expressed in COS cells", "type": "cell-based", "conditions": "inhibitor at 0.1 to 1 μM, FIG. 1 lanes 6-7", "from_the_text": "(§1) Two subclones of the human mast cell leukemia line HMC1 were used to determine if the wild type and mutant KIT enzymes were able to interact with 2 drug compounds, […] and SU9529. Set forth as SEQ ID NO:1 is a nucleotide sequence for the wild type KIT enzyme (amino acid sequence is set forth as SEQ ID NO:2). One subclone, HMC1.1, expressed a valine to glycine substitution in codon 560 (Val560Gly) of the KIT intracellular juxtamembrane region. The other, HMC1.2, expressed the Val560Gly mutation and a second substitution, aspartate to valine in codon 816 (Asp816Val) in the kinase enzymatic pocket. […] For additional study of wild type and specific mutant forms of KIT, COS cells were used for transient expression of human wild-type and mutated c-KIT complementary DNAs, as described previously by Ma et al., “Inhibition of spontaneous receptor phosphorylation by residues in putatitive α-helix in the KIT intracellular juxtamembrane region,” J. Biol. Chem., 274:13399-13402 (1999). ST1571 is a commercially available drug manufactured by Novartis and developed as an inhibitor of the c-abl gene product. ST1571 has been reported to inhibit wild-type KIT and KIT expressed by HMC1. The other compound, SU9529, is manufactured by SUGEN and has not yet been made commercially available, although it has been published. […]"}, "HMC1 line": {"system": "HMC1 line", "conditions": "at 1 μM; cited from earlier work"}, "wild-type KIT [2]": {"target": "T2, wild-type KIT (Homo sapiens, UniProt P10721)", "conditions": "has been reported; cited from earlier work"}, "KIT expressed by HMC1": {"target": "KIT expressed by HMC1 (Homo sapiens, UniProt P10721, V560G)", "sequence (P10721 26-976 V560G)": "as above", "conditions": "has been reported; cited from earlier work"}, "wild-type KIT [3]": {"target": "T2, wild-type KIT", "experiment": "SCF-induced phosphorylation of wild-type KIT transiently expressed in COS cells (antiphosphotyrosine blot)", "type": "cell-based", "set-up": "expressed in transfected cells; host or cells: COS cells", "conditions": "inhibitor at 0.1 to 1 μM, 1 hour, FIG. 1 lanes 3-4", "from_the_text": "as §1"}}}
{"compound": "Cc1ccc(NC(=O)c2ccc(CN3CCN(C)CC3)cc2)cc1Nc1nccc(-c2cccnc2)n1", "note": "[ST1571]", "values": [{"measurement": "inhibition of SCF-independent constitutive phosphorylation of Val560Gly KIT", "setting": "[1]", "value": "inhibit"}, {"measurement": "previously reported ability to kill an HMC1 line", "setting": "HMC1 line", "value": "kill"}, {"measurement": "reported inhibition of wild-type KIT", "setting": "wild-type KIT [2]", "value": "inhibit"}, {"measurement": "reported inhibition of KIT expressed by HMC1", "setting": "KIT expressed by HMC1", "value": "inhibit"}, {"measurement": "inhibition of SCF-induced phosphorylation of wild-type KIT", "setting": "wild-type KIT [3]", "value": "prevent the phosphorylation"}]}
